From US20140127235A1, “TARGETING HK alpha FOR CONTROLLING BLOOD PRESSURE AND REGULATING ELECTROLYTE BALANCE” (UNIVERSITY OF FLORIDA RESEARCH FOUNDATION, INC., priority 2011, published 2014)

What was measured:
Assay type in all cases: in vivo, mouse
[1] = tested on: HKα2 mRNA; test: Real time PCR of renal HKα2 mRNA expression in DOCP-treated mice
Text: The principal mechanism of mineralocorticoid action is through modulation of target gene transcription.^15 Therefore, the next experiments evaluated the effect of DOCP on renal HKα1 and HKα2 mRNA expression. Real time quantitative PCR was used to investigate changes in steady state mRNA levels of H^+,K^+-ATPase α subunits, HKα1 and HKα2, in cortex, outer medulla, and inner medulla of control and DOCP-treated mice.
Deficits in K^+ homeostasis have long been known to stimulate H^+,K^+-ATPase activity and HKα subunit expression. Therefore, the next experiments investigated whether the decreases in blood [K^+] observed in DOCP-treated mice were responsible for the stimulation of HKα2 mRNA expression. For this experiment, mice were fed a high K^+ diet and then left untreated (control) or given DOCP treatment. Body weight and blood electrolytes were measured eight days after treatment and kidneys were collected for analysis of HKα, and HKα2 mRNA expression by real time PCR. A high K^+ diet abrogated the effect of DOCP on body weight gain, blood [K^+], [Cl^−], and [HCO3^−] in mice (Table 3). Similarly, the stimulation of HKα, or HKα2 mRNA expression with DOCP was absent in mice fed a high K^+ diet (FIGS. 3C and 3D).
RNA was recovered from cortex, medulla, and inner medulla with TRIzol reagent (Invitrogen). RNA was treated with DNase 1 (Ambion DNA Free) and converted to cDNA using SuperScript III (Invitrogen). For real time quantitative PCR, 20 ng cDNA was used to quantify mRNA expression with TaqMan Gene Expression (Applied Biosystems) primer/probe sets for HKα1 (Atp4a, Mm00444423_m1), HKα2 (Atp12a, Mm0131809_m1), and β-actin (Actb, Mm00607939_s1). Cycle threshold (Ct) values were normalized to β-actin, and relative expression (control set to 100%) was calculated by the ΔΔCt method.^28

[2] = Radiotelemetry (blood pressure, heart rate, locomotor activity) in WT and HKα1,2−/− mice, control and DOCP; conditions: for Mean arterial pressures / Heart rate / Locomotor activity: DOCP
Text: Age matched, male C56BL/6 WT and C56BL/6 HKα1,2^−/− mice were anesthetized using 5% isoflurane, and radiotelemetry transmitters (PA-C10, Data Sciences, St. Paul, Minn.) were implanted under sterile conditions (1-3% continuous isoflurane). The catheter was placed in the left carotid artery and the housing of the transmitter was implanted subcutaneously on the animal's right flank. Mice were allowed to recover for a period of at least 14 days prior to recordings. These mice were not subject to metabolic cage experiments or blood and tissue collections. Mice were fed a normal lab chow (Teklad 2018, 0.2% Na and 0.5% K) and allowed free access to water. DOCP treated mice received an intramuscular injection of 1.7 mg DOCP (Percorten V, Novartis Pharmaceuticals) and were fed the normal gel diet described previously supplemented with NaCl to equal 0.4% Na^+ ad libitum for 8 days with free access to water. Radiotelemetry recordings were performed one week before and one week after DOCP treatment. At the time of the control recording, mice ranged in age from 15-25 weeks. Recording were made for 2 minutes at the beginning of each hour or for 2 minutes every 10 minutes for 48 hours. Moving averages were calculated for each hour. Comparisons of systolic BP, HR, and LA were made for the main effects 1) DOCP treated versus untreated and 2) WT versus HKα1,2^−/− mice. Differences between the daytime (06:00-17:59) and nighttime (18:00-05:59) values for these parameters were also compared.
Radiotelemetry was performed in order to assess genotypic differences in systolic BP, HR and LM during normal and DOCP treatment. Example 48 hr tracings of systolic BP, HR, and LA comparing WT and HKα1,2^−/− during normal and DOCP treatment are shown in FIG. 13.

[3] = Survival of DOCP-treated WT and HKα1,2−/− mice over 60 days; conditions: two injections of DOCP on day zero and day 57
Text: These animals all received two injections of DOCP on day zero and day 57. Four of the HKα1,2^−/− mice died at day's nine 46, 47, and 59 for an overall survival at 60 days of 57% for the HKα1,2^−/− mice whereas there were no deaths in the nine WT animals X^2 (log-rank): 4.554 (P<0.05).

CC(C)(C)C(=O)OCC(=O)[C@H]1CC[C@H]2[C@@H]3CCC4=CC(=O)CC[C@]4(C)[C@H]3CC[C@]12C [DOCP, desoxycorticosterone pivalate]
HKα2 mRNA expression ([1]; cortex, eight days after DOCP, normal diet): did not affect
HKα2 mRNA levels, increase ([1]; inner medulla, eight days after DOCP, normal diet): as much as five-fold
stimulation of HKα1 or HKα2 mRNA expression with DOCP ([1]; mice fed a high K+ diet): absent
HKα2 mRNA levels, increase ([1]; outer medulla, eight days after DOCP, normal diet): more than two-fold
effect on daytime or nighttime systolic BP ([2]; HKα1,2−/− mice): failed to significantly increase
Mean arterial pressures ([2]; HKα1,2−/− mice, Daytime (Inactive)): 112.7 ± 1.8 mmHg
Heart rate ([2]; HKα1,2−/− mice, Daytime): 554.8 ± 21.4 beats/min
Locomotor activity ([2]; HKα1,2−/− mice, Daytime): 3.267 ± 0.603
Mean arterial pressures ([2]; HKα1,2−/− mice, Nighttime (Active)): 118.5 ± 2.4 mmHg
Heart rate ([2]; HKα1,2−/− mice, Nighttime): 580.5 ± 20.1 beats/min
Locomotor activity ([2]; HKα1,2−/− mice, Nighttime): 5.410 ± 1.078
effect on locomotor activity (LA) ([2]; WT and HKα1,2−/− mice): did not significantly affect
effect on systolic BP during the day and night ([2]; WT mice): significantly increased
effect on HR during the night ([2]; WT mice, DOCP treatment): significant decrease
Mean arterial pressures ([2]; WT mice, Daytime (Inactive)): 112.9 ± 2.3 mmHg
Heart rate ([2]; WT mice, Daytime): 496.7 ± 17.5 beats/min
Locomotor activity ([2]; WT mice, Daytime): 3.913 ± 0.407
Mean arterial pressures ([2]; WT mice, Nighttime (Active)): 122.5 ± 2.9 mmHg
Heart rate ([2]; WT mice, Nighttime): 533.5 ± 17.2 beats/min
Locomotor activity ([2]; WT mice, Nighttime): 7.036 ± 0.735
overall survival at 60 days ([3]; HKα1,2−/− mice (seven)): 57%
deaths over 60 days ([3]; nine WT mice): no deaths
